{
  "source": "patent US12447137B2",
  "about": "“Composition for prevention, amelioration, or treatment of cancer” (EWHA UNIVERSITY—INDUSTRY COLLABORATION FOUNDATION, priority 2019, dated 2025)",
  "key": {"4T1 cell line [1]": {"test_system": "4T1 cell line", "assay": "Clonogenic assay", "format": "cell-based, mouse", "settings": "4T1, 10 μM; FIG. 2B", "description": "The breast cancer cell line of Experimental Method 1 was dispensed into a 6-well plate at a density of 1 to 2×10^3 cells/well. After the cells were sufficiently attached, they were treated with the compound of Production Example 6 at a concentration of 0 to 30 μM and cultured for 10 days to 14 days. Next, the cultured cells were fixed with 4% formaldehyde and stained with 1% crystal violet, and the colonies were counted under a microscope."}, "p-AMPK (Thr172)": {"test_system": "p-AMPK (Thr172)", "assay": "AMPK activation by p-AMPK (Thr172) Western blot in BT549 cells", "format": "cell-based, human", "settings": "BT549, 10 μM, 24 hours; FIG. 3B", "description": "[3-1] The breast cancer cell line of Experimental Method 1 above was treated with the compound of Production Example 6 at a concentration of 0 to 30 μM, and then cultured for 24 hours. Thereafter, the cells were harvested and lysed in RIPA buffer, and the protein was electrophoresed by SDS-PAGE, and then the expression level of the protein was analyzed using antibodies specific for AMPK and phospho-AMPK (Thr172). GAPDH or β-actin was used as a loading control for protein quantification.\n[3-2] The three breast cancer cell lines (4T1, BT549, and MDA-MB-231) of Experimental Method 1 were treated with each of the compound of Production Example 6 and 13 compounds, including the compounds of Production Examples 1 to 5 and 8 to 15 having a similar structure (YE-01, 02, 03, 04, 05, 08, 09, 10, 11, 12, 13, 14 and 15), at a concentration of 10 μM, and then cultured for 24 hours. […] Thereafter, the cells were harvested and lysed in RIPA buffer, and the protein was electrophoresed by SDS-PAGE, and then the expression level of the protein was analyzed using antibodies specific for AMPK and phospho-AMPK (Thr172). GAPDH or β-actin was used as a loading control for protein quantification."}, "[2]": {"test_system": "cleaved-PARP, Bcl-2 and Cyclin D1 proteins", "assay": "Apoptosis marker Western blot in 4T1 cell line", "format": "cell-based, mouse", "settings": "FIG. 5"}, "4T1 cell line [3]": {"test_system": "4T1 cell line", "assay": "Flow cytometry assay (Annexin V / PI)", "format": "cell-based, mouse", "settings": "4T1, 0 to 30 μM, 24 hours; FIG. 6", "description": "The breast cancer cell line of Experimental Method 1 was treated with the compound of Production Example 6 at a concentration of 0 to 30 μM and cultured for 24 hours. Thereafter, the cultured cells were detached by trypsin, and then double-stained with Annexin V; recognizing apoptosis) and PI (propidium iodide; recognizing cell necrosis), and then the pattern and level of apoptosis were measured using flow cytometry."}, "[4]": {"test_system": "EMT protein markers α-SMA, Vimentin, ZEB-1 and Slug", "assay": "EMT protein marker Western blot, TGF-β1-treated BT549 cells", "format": "cell-based, human", "settings": "BT549, with TGF-β1; FIG. 7A", "description": "(§1) The culture medium of the breast cancer cell line of Experimental Method 1 was replaced with a serum-free medium. Then, the cells were treated with 2 ng/mL of TGF-β1 and the compound of Preparation Example 6 and cultured for 20 to 24 hours. Thereafter, as described in Experimental Method 3, the expression level of the protein was measured using an antibody specific for the EMT-related protein."}, "[5]": {"test_system": "EMT protein markers α-SMA, Vimentin, ZEB-1 and Slug", "assay": "EMT protein marker Western blot, TGF-β1-treated 4T1 cells", "format": "cell-based, mouse", "settings": "4T1, with TGF-β1; FIG. 7A", "description": "as §1"}, "[6]": {"assay": "Body weight / toxicity in xenograft animal model", "format": "in vivo, mouse", "settings": "4 mg/kg tail vein (IV) once every 3 days, 6 times; FIG. 8C", "excerpt": "After 4-week-old athymic nude mice (female) were purchased, only healthy mice were selected while the mice were adapted to the environment of the animal breeding room for 7 days. For identification of each mouse, the ears were marked using an ear punch. In addition, the breeding box was identified by attaching a mouse identification card describing the test number, test substance name, test item, receipt date, test date, test content, and the person in charge of the test. The environment of the animal breeding room was maintained at a temperature of 22±3° C., a relative humidity of 50±20%, 10 to 15 ventilations/hour, a 12-hour light (8:30 to 20:30)/dark cycle, and an illuminance of 150 to 300 lux. In addition, the animals were fed feed and drinking water during the breeding period, and quarantined during the acclimatization and testing periods. […]\nDuring a period ranging from the day the mouse breast cancer cell line 4T1-luc was injected to the end of the experiment (dissection date), the tumor volume was measured every day. […] In order to confirm the tumor regression effect, the volume of the tumor was measured before administration of the compound of Production Example 6, and at day 28 after the first administration of the compound of Production Example 6, the animals were euthanized, and the primary tumors were excised and their volumes were compared."}},
  "data": [
    {"compound": "COc1ccc(OC)c(/C=C/C(=O)c2ccc(NS(=O)(=O)c3ccc(Cl)cc3)cc2)c1", "note": "[Production Example 6, (E)-4-chloro-N-(4-(3-(2,5-dimethoxyphenyl)acryloyl)phenyl)benzenesulfonamide]", "values": [
      {"measurement": "colony formation", "setting": "4T1 cell line [1]", "value": "significantly reduced"},
      {"measurement": "p-AMPK level", "setting": "p-AMPK (Thr172)", "value": "effectively increased"},
      {"measurement": "level of Bcl-2 protein", "setting": "[2]", "value": "decreased"},
      {"measurement": "level of Cyclin D1 protein", "setting": "[2]", "value": "decreased"},
      {"measurement": "level of apoptosis marker cleaved-PARP protein", "setting": "[2]", "value": "increased"},
      {"measurement": "cells stained with annexin V or PI", "setting": "4T1 cell line [3]", "value": "increased in a concentration-dependent manner"},
      {"measurement": "Slug protein", "setting": "[4]", "value": "decreased"},
      {"measurement": "Vimentin protein", "setting": "[4]", "value": "decreased"},
      {"measurement": "ZEB-1 protein", "setting": "[4]", "value": "decreased"},
      {"measurement": "α-SMA protein", "setting": "[4]", "value": "decreased"},
      {"measurement": "Slug protein", "setting": "[5]", "value": "decreased"},
      {"measurement": "Vimentin protein", "setting": "[5]", "value": "decreased"},
      {"measurement": "ZEB-1 protein", "setting": "[5]", "value": "decreased"},
      {"measurement": "α-SMA protein", "setting": "[5]", "value": "decreased"},
      {"measurement": "weight loss depending on the breeding time", "setting": "[6]", "value": "no weight loss"}
    ]}
  ]
}
